Measurements reported in the supplement of paper PMC11208160.

assay: recombinant barcode read abundance after kanamycin selection (control-corrected) (log10(CPM+1)); higher = more efficient recombination; sequences stand for … in AGTGCAGAGAAAATCGGCCAGTTTTCTCTGCCTGCAGTCCGCATGCCGT…AGATTTATGCAGCGGACTGCCTTTCTCCCAAAGTGATAAACCGGACAGTATCATGGACCGGTTTTCCCGGTAATCCGTATTTGCAAGGTTGGTTTCACT; site = the 11-nt target
Procedure: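 Pooled E. coli target-specificity screen for the IS621 bridge recombinase. Each library plasmid pairs an 11-nt target (CT core) with a bridge RNA whose target-binding loop (9-nt LTG + 4-nt RTG) is reprogrammed; the rest of the 177-nt WT IS621 bridge RNA scaffold is fixed. The plasmid is co-electroporated with a WT donor plasmid; recombinase is induced with 0.1 mM IPTG and recombinants are selected on kanamycin. Recombinant barcodes are sequenced, converted to CPM, averaged over two biological replicates and corrected by the unselected control CPM. Molecule = full bridge RNA written as DNA: LTG = specificity nt 1-9, RTG = reverse complement of specificity nt 8-11, in the WT scaffold.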
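Note: IS621 recombinase and bridge RNA in Escherichia coli cells.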

Sequence | recombinant barcode read abundance (log10)
AAAATACCTTGGGTTCTAACCTGTTGCGG (site AAAATACCTCC) | 1.68
AAAATACCTTGGGTTCTAACCTGTTGCGG (site CAAAGACCTCC) | 0.12
AAAATATCTTGGGTTCTAACCTGTTGCCT (site AAAATATCTAG) | 0.438
AAAATATCTTGGGTTCTAACCTGTTGCCT (site TCGTACCCTTT) | 0.0268
AAAATCTCTTGGGTTCTAACCTGTTGCCT (site AAAATCTCTAG) | 0.708
AAAATCTCTTGGGTTCTAACCTGTTGCCT (site AAACTCGCTAG) | 0.113
AAACTAGCTTGGGTTCTAACCTGTTGCGG (site AAACTAGCTCC) | 2.27
AAACTAGCTTGGGTTCTAACCTGTTGCGG (site CGTGCGCCTAG) | 0.288
AAACTCGCTTGGGTTCTAACCTGTTGCCT (site AAAATCTCTAG) | 0.322
AAACTCGCTTGGGTTCTAACCTGTTGCCT (site AAACTCGCTAG) | 1.8
AAATGGGCTTGGGTTCTAACCTGTTGCGG (site AAATGGGCTCC) | 2.5
AAATGGGCTTGGGTTCTAACCTGTTGCGG (site AGATGAGCTCC) | 0.166
AACAAGACTTGGGTTCTAACCTGTTGCCT (site AACAAGACTAG) | 1.29
AACAAGACTTGGGTTCTAACCTGTTGCCT (site GTACGACCTGT) | 0.274
AACAATACTTGGGTTCTAACCTGTTGCCT (site AACAATACTAG) | 0.438
AACAATACTTGGGTTCTAACCTGTTGCCT (site CTGTGAGCTCT) | 0.0738
AACACGACTTGGGTTCTAACCTGTTGCCT (site AACACGACTAG) | 0.711
AACACGACTTGGGTTCTAACCTGTTGCCT (site GACAGGACTAG) | 0.165
AACACTGCTTGGGTTCTAACCTGTTGCCT (site AACAATGCTAG) | 0.0705

Sequence | recombinant barcode read abundance (log10)
AACACTGCTTGGGTTCTAACCTGTTGCCT (site AACACTGCTAG) | 1.09
AACACTGCTTGGGTTCTAACCTGTTGCCT (site AACAGTGCTAG) | 0
AACACTGCTTGGGTTCTAACCTGTTGCCT (site AACATTGCTAG) | 0.0625
AACAGTACTTGGGTTCTAACCTGTTGCCT (site AACAGTACTAG) | 0.845
AACAGTACTTGGGTTCTAACCTGTTGCCT (site CACAGTACTAG) | 0.406
AACAGTACTTGGGTTCTAACCTGTTGCCT (site GACAGTACTAG) | 0.129
AACAGTACTTGGGTTCTAACCTGTTGCCT (site TACAGTACTAG) | 0.17
AACATAACTTGGGTTCTAACCTGTTGCGT (site AACATAACTAC) | 1.34
AACATAACTTGGGTTCTAACCTGTTGCGT (site TGTTGTCCTCA) | 0.0331
AACCCTACTTGGGTTCTAACCTGTTGCCT (site AACCCTACTAG) | 0.929
AACCCTACTTGGGTTCTAACCTGTTGCCT (site CACCCTACTAG) | 0.328
AACCCTACTTGGGTTCTAACCTGTTGCCT (site GACCCTACTAG) | 0.0455
AACCCTACTTGGGTTCTAACCTGTTGCCT (site TACCCTACTAG) | 0.193
AACCGCCCTTGGGTTCTAACCTGTTGCCT (site AACCGCCCTAC) | 0.899
AACCGCCCTTGGGTTCTAACCTGTTGCCT (site AACCGCCCTAG) | 0.478
AACGACGCTTGGGTTCTAACCTGTTGCCT (site AACGACGCTAG) | 1.02
AACGACGCTTGGGTTCTAACCTGTTGCCT (site ACCGAGGCTAG) | 0.0126
AACGCCTCTTGGGTTCTAACCTGTTGCCT (site AACGCCTCTAG) | 0.389
AACGCCTCTTGGGTTCTAACCTGTTGCCT (site CACGCCTCTAG) | 0.125
